Measurements published in US20230174523A1, “BENZENESULFONAMIDE DERIVATIVES AS TRAP1 MODULATORS AND USES THEREOF” (Amathus Therapeutics, Inc., priority 2020, published 2023).

Target: T1, TRAP1 enzyme (Homo sapiens, UniProt Q12931)
T1 sequence (Q12931 60-704): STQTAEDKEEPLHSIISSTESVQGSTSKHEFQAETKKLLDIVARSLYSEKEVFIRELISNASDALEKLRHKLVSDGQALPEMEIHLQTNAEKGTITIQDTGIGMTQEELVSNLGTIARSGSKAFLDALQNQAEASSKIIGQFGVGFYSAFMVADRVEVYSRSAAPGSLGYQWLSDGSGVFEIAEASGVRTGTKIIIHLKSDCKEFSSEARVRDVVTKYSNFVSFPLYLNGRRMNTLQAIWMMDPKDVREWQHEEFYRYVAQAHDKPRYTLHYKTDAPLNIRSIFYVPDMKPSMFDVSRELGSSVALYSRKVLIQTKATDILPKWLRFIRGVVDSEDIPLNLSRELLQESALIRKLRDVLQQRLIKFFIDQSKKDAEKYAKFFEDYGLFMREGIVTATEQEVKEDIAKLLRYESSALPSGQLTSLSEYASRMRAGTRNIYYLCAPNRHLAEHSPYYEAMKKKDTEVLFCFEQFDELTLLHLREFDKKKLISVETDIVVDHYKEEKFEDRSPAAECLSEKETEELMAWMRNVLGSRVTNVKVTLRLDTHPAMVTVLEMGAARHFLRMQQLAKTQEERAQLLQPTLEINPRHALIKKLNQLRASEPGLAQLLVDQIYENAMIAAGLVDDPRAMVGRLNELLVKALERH
Experiment: ADP Glo assay of TRAP1 ATPase activity
Type: biochemical
Settings: for EC50: TRAP1 ATPase activation, 150 nM Trap1, 20 μM ATP, geometric mean, read-out: ADP GLO DRC: GeoMean EC50; for Emax: read-out: ADP GLO DRC: Mean Emax
Protocol: Potency of test compounds to modulate the ATPase activity of TRAP1 enzyme was evaluated using ADP Glo assay. The assay is based on quantification of the ADP generated from ATP in the ATPase reaction. The assay is performed in two steps: first, after the ATPase reaction, an equal volume of ADP-Glo™ Reagent is added to terminate the ATPase reaction and deplete the remaining ATP. Second, the Kinase Detection Reagent is added to simultaneously convert ADP to ATP and allow the newly synthesized ATP to be measured using a luciferase/luciferin reaction.
All the assays were carried out in a 384-well Proxiplate. The buffer used was 25 mM Pipes pH-7.5, 40 mM KCl, 0.05 mM MgCl2, 0.025% BSA, 0.316 mM EGTA, 0.003% Empigen, 0.01% Igepal. 150 nM Trap1 enzyme was incubated with various concentrations of the test compound (0.79 μM-100 μM) at 37° C. for 30 mins (except in blank wells). 20 μM ATP was added to each well to start the reaction. The plate was spun for 1 min at 1200 rpm and then incubated at 37° C. for 60 mins. 5 μl of ADP Glo reagent was added to all the wells and spun the plate for 1 min at 1200 rpm and kept it on a shaker at ambient temperature for 60 mins. 10 μl of kinase detection mix was added to all the wells and the plate was read for Luminescence at 495 nm. The amount of ADP released was estimated from ATP/ADP standard curve generated at the same experimental conditions. Emax (Maximal percent activation) and EC50 (concentration for half maximal activation) were estimated by fitting the dose response data to a sigmoidal curve fitting equation using Graphpad Prism software V. 8.

Row | Compound | EC50 | Emax
1 | COc1ccc(NC(=O)c2onc3c2CCCC3)cc1S(=O)(=O)Nc1c(C)cccc1C [Compound 1056] | 20 to 100 µM | 123 to 159%
2 | CCOc1c(F)c(F)cc(C(=O)Nc2ccc(OC)c(S(=O)(=O)Nc3c(C)cccc3C)c2)c1F [Compound 1145] | < 10 µM | 123 to 159%
3 | Cc1ccc(Sc2ncccc2C(=O)Nc2ccc(F)c(S(=O)(=O)Nc3ccc(Cl)cc3)c2)cc1 [Compound 764] | 10 to 20 µM | 123 to 159%
4 | COc1ccc(NC(=O)c2ncc(-c3ccccc3)o2)cc1S(=O)(=O)Nc1c(C#N)cccc1C(F)(F)F [Compound 1343, N-(3-(N-(2-cyano-6-(trifluoromethyl)phenyl)sulfamoyl)-4-methoxyphenyl)-5-phenyloxazole-2-carboxamide] | 20 to 100 µM | 200 to 300%
5 | COc1ccc(NC(=O)c2cnc(-c3ccccc3)s2)cc1S(=O)(=O)Nc1ccc(Cl)cc1 [Compound 468] | < 10 µM | 160 to 199%
6 | O=C(Nc1ccc(F)c(S(=O)(=O)Nc2ccc(Cl)cc2)c1)c1ccccc1C(=O)c1ccccc1 [Compound 681] | < 10 µM | 160 to 199%
7 | COc1ccc(NC(=O)c2cnccc2-c2ccccc2)cc1S(=O)(=O)Nc1c(C)cccc1C [Compound 1022] | 20 to 100 µM | 200 to 300%
8 | COc1ccc(NC(=O)c2c(-c3ccccc3)noc2C)cc1S(=O)(=O)Nc1c(C)cccc1C [Compound 1279] | < 10 µM | 200 to 300%
9 | COc1ccc(NC(=O)c2cccc3c2OC(C)(C)CC3)cc1S(=O)(=O)Nc1c(C)cccc1C [Compound 1040] | < 10 µM | 200 to 300%
10 | COc1ccc(NC(=O)c2cccc(-c3cnco3)c2)cc1S(=O)(=O)Nc1c(C)cccc1C [Compound 1218] | 10 to 20 µM | 160 to 199%

Continued, values first:

Row | EC50 | Emax | Compound
11 | 20 to 100 µM | 160 to 199% | COc1ccc(NC(=O)c2ccnc(SC)n2)cc1S(=O)(=O)Nc1c(C)cccc1C [Compound 1039]
12 | 10 to 20 µM | 200 to 300% | COc1ccc(NC(=O)c2ccnn2-c2ccccc2)cc1S(=O)(=O)Nc1c(C)cccc1C [Compound 1061]
13 | 20 to 100 µM | 160 to 199% | COc1ccc(NC(=O)c2nccs2)cc1S(=O)(=O)Nc1c(C)cccc1C [Compound 1171]
14 | 10 to 20 µM | > 300% | COc1ccc(NC(=O)c2cn(C)c3ncccc23)cc1S(=O)(=O)Nc1c(C)cccc1C [Compound 1108]
15 | 20 to 100 µM | 200 to 300% | COc1ccc(NC(=O)c2cnn3cccnc23)cc1S(=O)(=O)Nc1c(C)cccc1C [Compound 1147]
16 | < 10 µM | 160 to 199% | COc1ccc(NC(=O)c2cccc(-c3csc(C)n3)c2)cc1S(=O)(=O)Nc1c(C)cccc1C [Compound 1290]
17 | < 10 µM | 160 to 199% | COc1ccc(NC(=O)c2ccc3c(c2)CCCO3)cc1S(=O)(=O)Nc1c(C)cccc1C [Compound 1121]
18 | 20 to 100 µM | 200 to 300% | COc1ccc(NC(=O)c2ncn(-c3cccc(F)c3)n2)cc1S(=O)(=O)Nc1c(C)cccc1C [Compound 1011]
19 | 10 to 20 µM | 200 to 300% | COc1ccc(NC(=O)c2ccc3cn(C)nc3c2)cc1S(=O)(=O)Nc1c(C)cccc1C [Compound 1362]
20 | 20 to 100 µM | 200 to 300% | COc1ccc(NC(=O)c2cccc(OC3CCOCC3)n2)cc1S(=O)(=O)Nc1c(C)cccc1C [Compound 1154]
21 | 20 to 100 µM | 160 to 199% | COc1ccc(NC(=O)c2cccc(C(=O)N(C)C)c2)cc1S(=O)(=O)Nc1c(C)cccc1C [Compound 1095]
22 | < 10 µM | 160 to 199% | COc1ccc(NC(=O)c2ccc(F)c(-c3c(F)cccc3F)n2)cc1S(=O)(=O)Nc1c(C)cccc1C [Compound 1033]
23 | 20 to 100 µM | 160 to 199% | COc1ccc(NC(=O)c2cc(C)n(C)c2)cc1S(=O)(=O)Nc1c(C)cccc1C [Compound 1009]
24 | 20 to 100 µM | 123 to 159% | COc1ccc(NC(=O)c2cc3cnccc3s2)cc1S(=O)(=O)Nc1c(C)cccc1C [Compound 1287]
